Measured values published in US20250032573A1, “IMMUNITY-ENHANCING PEPTIDE ANALOGS AND USES THEREOF” (RESEARCH & BUSINESS FOUNDATION SUNGKYUNKWAN UNIVERSITY, priority 2023, published 2025).
Like-named read-outs stand apart in the source and are kept apart here. Numbered stars: 1 amine (or outer) side, 2 acyl side, 3 side chain; on linkers, the order of the positions; unused ones are H or OH. Square brackets hold non-standard residues; d marks the D form. Peptide text beside a SMILES is read from it. Gly(N-4-hydroxybenzyl) = O=C(O)CNCc1ccc(O)cc1; X1 = CSCCN(CC(=O)[*:2])[*:1]; Nlys = NCCCCNCC(=O)O

Tests used:
neutrophils [1] = test: Superoxide anion (ROS) production in neutrophils; assay type: cell-based
Protocol: The effect of superoxide anion production in neutrophils by the peptoid-comprising analogs in which a peptoid residue was substituted for K, Y, and M in the structure of WKYMVm was measured.

[2] = Degradation half-life in human liver S9 fraction (HPLC); assay type: in vitro ADME
Protocol: To measure the ex vivo stability of the eight analogs comprising a β^3-amino acid residue, the degradation half-life of each analog was measured in a human liver S9 fraction. The degradation half-life was measured by culturing the peptide and serum together at 37° C. and measuring the degree to which the compound was reduced using HPLC at each hour.
The ex vivo stability of the analogs to which a peptoid residue was introduced was measured using the same method as the stability measurement method for the analogs comprising a β-amino acid residue. […] On the other hand, it was confirmed that K peptoid, KY peptoid, and KM peptoid had very high stability so that more than half of them was not degraded even after 24 hours (FIG. 17).

neutrophils [3] = test: Degranulation activity of neutrophils (beta-hexosaminidase activity); assay type: cell-based
Protocol: The degranulation activity of neutrophils by the analogs in which each amino acid in the structure of WKYMVm was substituted with a β-amino acid was compared and analyzed by measuring beta-hexosaminidase activity.
The degranulation activity of neutrophils by the peptoid-containing analogs in which a peptoid residue was substituted for K, Y, and M in the structure of WKYMVm was measured.

neutrophils [4] = test system: neutrophils
neutrophils [5] = test: Neutrophil chemotaxis assay using a Boyden chamber; assay type: cell-based
Protocol: To investigate the effect of the WKYMVm peptide analogs on the regulation of immune cell mobility, which a representative function of FPR, a chemotaxis assay was performed using a Boyden chamber.
To measure the in vitro innate immune activity of four peptides comprising one non-natural β^3-amino acid residue, the effect of enhancing neutrophil mobility was measured.

[6] = human liver S9 fraction, 37° C., 24-hour measurement period, read-out: degradation half-life
[7] = human liver S9 fraction, 37° C.

## CSCC[C@H](NC(=O)[C@H](Cc1ccc(O)cc1)NC(=O)CN(CCCCN)C(=O)[C@@H](N)Cc1c[nH]c2ccccc12)C(=O)N[C@H](C(=O)N[C@H](CCSC)C(N)=O)C(C)C [K peptoid]
Neutrophils [1]
  superoxide anion production in neutrophils: effectively promote superoxide anion production
[2]; [6]
  Half-Life: > 24 h
Neutrophils [3]
  degranulation activity of neutrophils: promoted the degranulation activity of neutrophils to the extent similar to the WKYMVm peptide

## CSCC[C@@H](NC(=O)[C@@H](NC(=O)CN(CCSC)C(=O)[C@H](Cc1ccc(O)cc1)NC(=O)CN(CCCCN)C(=O)[C@@H](N)Cc1c[nH]c2ccccc12)C(C)C)C(N)=O [KM peptoid] (H-W[Nlys]Y[X1]V[dM]-NH2)
[2]; human, s9
  Half-Life: > 24 h

## CSCC[C@H](NC(=O)CN(Cc1ccc(O)cc1)C(=O)CN(CCCCN)C(=O)[C@@H](N)Cc1c[nH]c2ccccc12)C(=O)N[C@H](C(=O)N[C@H](CCSC)C(N)=O)C(C)C [KY peptoid] (H-W[Nlys][Gly(N-4-hydroxybenzyl)]MV[dM]-NH2)
[2]; human, s9
  Half-Life: > 24 h

## CSCC[C@@H](CC(=O)N[C@H](C(=O)N[C@H](CCSC)C(N)=O)C(C)C)NC(=O)C[C@H](Cc1ccc(O)cc1)NC(=O)[C@H](CCCCN)NC(=O)[C@@H](N)Cc1c[nH]c2ccccc12 [WKYβMβVm]
Neutrophils [1]
  superoxide anion production in neutrophils: effectively promoted superoxide anion production
Neutrophils [4]
  calcium ion-increasing effect in neutrophils: highly induced
[2]; [7]
  degradation half-life / ex vivo stability compared to the WKYMVm peptide (in words): improved ex vivo stability
Neutrophils [5]
  effect of enhancing neutrophil mobility, compared with the WKYMVm peptide: maintained similar activity to the WKYMVm peptide
Neutrophils [3]
  degranulation activity of neutrophils: effectively promoted the degranulation activity of neutrophils

## CSCC[C@@H](CC(=O)N[C@H](C(=O)N[C@H](CCSC)C(N)=O)C(C)C)NC(=O)[C@H](Cc1ccc(O)cc1)NC(=O)C[C@H](CCCCN)NC(=O)[C@@H](N)Cc1c[nH]c2ccccc12 [WKβYMβVm]
Neutrophils [1]
  superoxide anion production in neutrophils: effectively promoted superoxide anion production
Neutrophils [4]
  calcium ion-increasing effect in neutrophils: highly induced
[2]; [7]
  degradation half-life / ex vivo stability compared to the WKYMVm peptide (in words): improved ex vivo stability
  half-life increase compared to the WKYMVm peptide: about 3.3 times
Neutrophils [5]
  effect of enhancing neutrophil mobility, compared with the WKYMVm peptide: maintained similar activity to the WKYMVm peptide
Neutrophils [3]
  degranulation activity of neutrophils: effectively promoted the degranulation activity of neutrophils

## CSCC[C@@H](CC(=O)N[C@H](C(=O)N[C@H](CCSC)C(N)=O)C(C)C)NC(=O)C[C@H](Cc1ccc(O)cc1)NC(=O)C[C@H](CCCCN)NC(=O)[C@@H](N)Cc1c[nH]c2ccccc12 [WKβYβMβVm]
Neutrophils [1]
  superoxide anion production in neutrophils: did not induce superoxide anion production
Neutrophils [4]
  calcium ion-increasing effect in neutrophils: highly induced
[2]; [6]
  Half-Life: > 24 h
Neutrophils [3]
  degranulation activity of neutrophils: did not induce the degranulation activity of neutrophils
